Test results reported in article PMC11474028, “Lipopeptide antibiotics disrupt interactions of undecaprenyl phosphate with UptA” (Proceedings of the National Academy of Sciences of the …, 2024).

Target: UptA (Bacillus subtilis, UniProt O31823)
Test: Native MS of phospholipid binding to UptA
Conditions: 4 µM UptA with 10 µM lipid (stated for a15:0-i15:0 lipids); mean of three independent replicates
Text: Proteins belonging to the DedA family are a widespread family of transporters and are proposed to flip diverse lipids, including carrier lipids and membrane phospholipids. We therefore probed the interaction of UptA with membrane phospholipids to understand whether the latter could modulate its function. For this purpose, we selected anionic phosphatidylglycerols (PG) and zwitterionic phosphatidylethanolamines (PE), representing the major classes of phospholipid headgroups found in B. subtilis ([41], [42]). We recorded mass spectra of solutions containing 4 µM UptA incubated with 10 µM a15:0-i15:0 PE and 10 µM a15:0-i15:0 PG (a15:0, anteiso-pentadecanoic acid; i15:0, iso-pentadecanoic acid). The fatty acid composition of these lipids closely mimics those of native B. subtilis lipids (see below). The resulting spectra display peaks corresponding to UptA in apo and lipid-bound forms in both cases (Fig. 4 A and B). […] We therefore hypothesize that UptA interacts more favorably with PG than with PE.
To verify the lipid binding preference of UptA with more native-like lipids, we prepared lipid extracts from B. subtilis membranes (Materials and Methods). We then incubate an aliquot of the resulting crude lipids (SI Appendix, Fig. S8) with UptA. The spectra yielded peaks assigned to UptA in complex with cardiolipins (~1,326 Da) and a range of phospholipids, predominantly 694 Da, 721 Da, 748 Da, and 776 Da species (Fig. 4 D and E). To identify these lipids, we performed tandem MS/MS, isolating the lipid species and subjecting it to collisional activation. […] The fatty acid fragments are mixed populations, predominantly 15:0-15:0, 15:0-17:0, 16:0-16:0, and 16:0-18:1 (SI Appendix, Fig. S9) which are the typical fatty acids from B. subtilis membrane phospholipids ([42]). We therefore conclude that UptA interacts more favorably with the anionic cardiolipins and phosphatidylglycerols than with the zwitterionic phosphatidylethanolamines in the membrane lipid extracts.
Detailed experimental procedures are provided in SI Appendix. Briefly, UptA (wild type and mutants) was expressed in E. coli C43(DE3) cells (Lucigen) with GFP fusion on the C-terminus and solubilized from the membrane fraction by n-dodecyl-β-D-maltopyranoside (DDM). After purification by affinity chromatography, the GFP was cleaved by TEV protease and removed, and UptA was further purified by size-exclusion chromatography in a buffer containing 20 mM Tris-HCl (pH 8.0), 200 mM NaCl, 0.02% DDM. Before measurements, proteins were buffer-exchanged into 0.05% LDAO, 200 mM ammonium acetate at the desired pH using a centrifugal buffer exchange device (Micro Bio-Spin 6, Bio-Rad). Stock solutions of lipids were prepared from chloroform/methanol solution by evaporating aliquots of known volume in a SpeedVac. After drying, the lipid films were weighed and resuspended to a final concentration of 0.5 mM in 200 mM ammonium acetate and 0.05% LDAO by vertexing. Stock solutions of 0.5 mM amphomycin, aspartocin D, daptomycin, polymyxin B, polymyxin E, and bacitracin were made in the same buffer. All experiments were repeated three times from newly prepared stock solutions. Native mass spectrometry was performed on a Q-Exactive hybrid quadrupole-Orbitrap mass spectrometer (Thermo Fisher Scientific, Bremen, Germany), and lipid identification was performed on an Orbitrap Eclipse Tribrid mass spectrometer (Thermo). […]
Lipid extracts from B. Subtilis
B. subtilis strain 168 (ATCC 23857) was cultivated in […] LB media at 37 °C until OD600 nm 1.2 under aurobic conditions. Cells were harvested by centrifugation at 4,000 g for 20 minutes and resuspended in 20 mM Tris-HCl (pH 8.0), 150 mM NaCl. Cells were lysed by 5-6 passes through a microfluidizer at 20,000 psi. The lysates were clarified by centrifugation at 4,000 g for 10 minutes, and the totoal membrane was pelleted at 120,000 g for 1 h. The membrane pellet was ressupended […]

UptA, sequence (O31823 whole entry): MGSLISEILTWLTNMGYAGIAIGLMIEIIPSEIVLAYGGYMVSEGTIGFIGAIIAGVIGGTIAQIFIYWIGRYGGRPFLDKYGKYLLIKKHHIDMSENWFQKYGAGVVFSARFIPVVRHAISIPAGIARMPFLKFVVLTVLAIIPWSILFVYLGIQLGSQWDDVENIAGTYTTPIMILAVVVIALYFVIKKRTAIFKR

CC(C)=CCC/C(C)=C/CC/C(C)=C/CC/C(C)=C\CC/C(C)=C\CC/C(C)=C\CC/C(C)=C\CC/C(C)=C\CC/C(C)=C\CC/C(C)=C\CC/C(C)=C\COP(=O)(O)O [C55-P, undecaprenyl phosphate]
mean relative intensity of UptA in complex with phospholipid, comparison (in words): more intensely than any of these diacylglycerol phospholipids
